The results in this text go back to patent US20130236473A1, “THERAPEUTIC AGENTS AND PROPHYLACTIC AGENTS FOR SYMPTOMS ACCOMPANYING AUTOIMMUNE DISEASES, INFLAMMATORY DISEASES, ALLERGY DISEASES AND ORGAN TRANSPLANTS” (OSAKA UNIVERSITY, priority 2010, published 2013).

Assay [1] relates to IL-6 amplifier. The experiment in a line: Reference Example 5: mIL-6 production on IL-6 amplifier activation with epiregulin in BC-1 cells (ELISA). Type of assay: cell-based. The conditions noted are these: 24 hours, 100 ng/ml mouse epiregulin protein, conditions (e) to (h), inhibitor 0, 0.1, 1 or 10 micromoles/L. Here is the method:
After the culture, the production amount of mouse IL-6 (mIL-6) protein in each of the clones, i.e., the amount of mIL-6 protein in the medium solution, was quantified by an ELISA method. In the ELISA method, anti-mIL-6 antibody and an ELISA kit, both manufactured by eBioscience, Inc., were used. In addition, a cell proliferation assay was performed for each of the clones, using a TetraColor ONE kit (Seikagaku Corporation). […]
After the culture, the production amount of mouse IL-6 protein under each condition was quantified by an ELISA method in the same manner as in Reference Example 1. […]

Assay [2] concerns IL-6 amplifier. The assay can be described thus: Reference Example 10: hIL-6 gene expression in human synovial fibroblasts with epiregulin (RT-PCR). The note with it: 3 hours, 100 ng/ml epiregulin protein, inhibitor 0 or 10 micromoles/L. Type of assay: cell-based.
Experimental: In addition, the expression amounts of mIL-6 gene were quantified by a real-time RT-PCR method. The real-time RT-PCR method was performed using a GeneAmp 5700 sequence detection system (Applied Biosystems) and a SYBER green PCR Master Mix (Sigma-Aldrich Co. LLC.). The conditions of the PCR amplification were as follows: the amplification was performed in 40 cycles, each cycle consisting of thermal denaturation (94° C., 15 seconds), annealing (60° C., 30 seconds), and extension reaction (72° C., 30 seconds)). […] After the culture, the expression amount of human IL-6 gene under each condition was quantified by a RT-PCR method in the same manner as in Reference Example 9.
The test system of assay [3] is cytokine-induced arthritis mice. The assay can be described thus: Clinical score of arthritis in cytokine-induced arthritis mice (F759 mice). Type of assay: in vivo, mouse. The protocol: On each of days 0, 1, and 2, 100 ng of mIL-6 protein and 100 ng of mIL-17A protein, as cytokines, were injected into the malleolus joints of 8-week-old F759 mice to induce arthritis. At the same time, on each of days 0 to 23, 10 micrograms of PD153035 dissolved in DMSO was injected into the malleolus joints (n=6). Mice injected with the cytokines and DMSO only (n=6), and mice injected with DMSO only (n=6) served as control groups.
From day 0 to day 23, symptom of arthritis was evaluated by clinical scores. Specific examples of the evaluation are described below and in FIG. 2. Specifically, for example, the clinical score is 0 if the movable range of malleolus joint is a healthy state as shown in FIG. 14(A), and the clinical score is 3 if severe arthritis develops and the movable range of malleolus joint is 60° smaller than the healthy case as shown in FIG. 14(B). Further, the clinical score is 1 if the movable range of malleolus joint is 20° smaller than the healthy case, and the clinical score is 2 if the movable range of malleolus joint is 40° smaller than the healthy case.
F759 mice used as cytokine-induced arthritis mice are genetically modified mice in which F759 mutation (in which tyrosine residue 759 (Y) is replaced by phenylalanine (F) in gp130 protein, a receptor of IL-6 protein, etc.) is introduced (Non-Patent Literature 3); and in F759 mice, dysregulation of IL-6 amplifier is observed (Non-Patent Literature 1). Dysregulation of IL-6 amplifier observed in F759 mice is believed to be caused as follows: SOCS3 protein signal transduction, which is dependent on the phosphorylation status of tyrosine residue 759 (Y759) of gp130 protein, is inhibited by F759 mutation, thereby decreasing the action of suppressing STAT3 signals via SOCS3 protein to enhance STAT3-dependent signals. It is known that autoimmune arthritis develops in almost 100% of the mice one to one-and-a-half years after birth. It is also known that arthritis develops earlier by injecting inflammatory cytokines, such as IL-6 and IL-17, into joints (e.g., malleolus joints) of the mice. […]

In assay [4] the test system is IL-6 amplifier. The assay can be described thus: Example 1: mIL-6 protein production on IL-6 amplifier activation in BC-1 cells or MEFs (ELISA). Type of assay: cell-based, mouse. The note with it: 30 min pretreatment with 0.1, 1 or 10 micromoles/L ErbB1 inhibitor, then conditions (a) to (d), 24 hours, 10% FBS. The protocol: 2×10^5 mouse BC-1 cells were cultured in an RPMI 1640 medium for 24 hours under each of the following conditions: • (a) in the presence of 10% FBS, • (b) with the addition of 50 ng/ml of hIL-6 protein and 50 ng/ml of hIL-6R protein (hereinafter referred to as “hIL-6/6R proteins”) and in the presence of 10% FBS, • (c) with the addition of 50 ng/ml of mIL-17A protein and in the presence of 10% FBS, • (d) with the addition of hIL-6/6R proteins at 50 ng/ml and mIL-17A protein at 50 ng/ml and in the presence of 10% FBS, • (e) in the absence of FBS, • (f) with the addition of hIL-6/6R proteins each at 50 ng/ml and in the absence of FBS, • (g) with the addition of 50 ng/ml of mIL-17A protein and in the absence of FBS, or • (h) with the addition of hIL-6/6R proteins each at 50 ng/ml and mIL-17A protein at 50 ng/ml and in the absence of FBS.
2×10^5 mouse BC-1 cells or 2×10^5 mouse embryonic fibroblasts (MEFs) were cultured for 30 minutes in an RPMI 1640 medium, in the presence of 0.1, 1, or 10 micromoles/L of PD153065; or in the presence of 0.1, 1, or 10 micromoles/L of PD168393 (Calbiochem). […]
After the culture, the production amount of mouse IL-6 protein under each condition was quantified by an ELISA method. […]

The test system of assay [5] is IL-6 amplifier. The assay can be described thus: Reference Example 3: effect of growth factors on mIL-6 protein production in BC-1 cells (ELISA). It counts as cell-based, mouse. The conditions noted are these: 24 hours, hIL-6/6R and mIL-17A each 50 ng/ml, growth factor added, versus none added. The protocol: 2×10^5 mouse BC-1 cells were cultured for 24 hours in an RPMI 1640 medium containing hIL-6/6R proteins each at 50 ng/ml and mIL-17A protein at 50 ng/ml under the condition in which 100 ng/ml of mouse EGF protein (R&D Systems, Inc.), 100 ng/ml of human HB-EGF protein (R&D Systems, Inc.), 0.1, 1, 10, or 100 ng/ml of mouse epiregulin protein (R&D Systems, Inc.), 50 ng/ml of mouse VEGF protein (R&D Systems, Inc.), 50 ng/ml of mouse FGF7 protein (R&D Systems, Inc.), or 300 ng/ml of mPDGF-CC protein (R&D Systems, Inc.) was separately added. Mouse BC-1 cells cultured under the condition in which only hIL-6/6R proteins and mIL-17A protein were added served as a control group.
After the culture, the production amount of mIL-6 protein under each condition was quantified by an ELISA method in the same manner as in Reference Example 1. FIGS. 5 and 6 show the results.
Background: ELISA stands for enzyme-linked immunosorbent assay.

Assay [6] has as its system experimental autoimmune encephalomyelitis (EAE) mice. The assay can be described thus: Clinical score in experimental autoimmune encephalomyelitis (EAE) mice. The note with it: 5 mg intraperitoneal on each of days 0 to 6, scored day 0 to 13, control DMSO. Type of assay: in vivo, mouse. The protocol:
EAE mice were made according to the method described in Non-Patent Literature 1.
200 micrograms of MOG (myelin oligodendrocyte glycoprotein) peptide (peptide comprising residues 33 to 55 of the full-length amino acid sequence of mouse MOG protein (amino acid sequence shown in SEQ ID NO: 9)) dissolved in Complete Freund's adjuvant (CFA) was administered to the tail of a 7- to 8-week-old C57/B6-strain mouse by subcutaneous injection, followed by intravenous injection of 200 nanograms of pertussis toxin (PTx).
A MOG-specific CDCT cell group was obtained according to a ordinary method from the spleen removed after feeding the above mouse for 10 days. 2×10^5 cells of the MOG-specific CDCT cells were cultured with 5×10^5 C57/B6-strain mouse bone marrow-derived dendritic cells (BMDCs) pulsed with MOG peptide in an RPMI 1640 medium containing 10% FBS in the presence of 20 ng/ml of recombinant IL-23 (rIL-23) protein in an incubator at a temperature of 37° C. to obtain a cell group containing pathogenic Th17 cells. […]
From day 0 to day 12, the clinical score in each mouse was evaluated according to the method described in Non-Patent Literature 1. […]
From day 0 to day 13, the clinical score in each mouse was evaluated according to the method described in Non-Patent Literature 1.

Setting [7] is: mIL-6 + mIL-17A days 0, 1, 2, 10 micrograms into malleolus joints on each of days 0 to 23, scored day 0 to 23.

In the case of `COc1cc2ncnc(Nc3cccc(Br)c3)c2cc1OC` [PD153035, 4-[(3-Bromophenyl)amino]-6,7-dimethoxyquinazoline], the “Increase in the amount of transcription of mIL-6 due to epiregulin protein (production amount of mouse IL-6 protein by ELISA)” value in assay [1] was “inhibited in a manner dependent on the addition amount”. For the same compound, the “Increase in the amount of transcription of hIL-6 due to epiregulin protein” value in assay [2] is “inhibited in a manner dependent on the addition amount”. Further, the “symptom of arthritis (clinical score)” value in assay [3] (setting [7]) was “symptom of cytokine-induced arthritis was alleviated, or worsening of symptom of cytokine-induced arthritis was suppressed”. Further, in assay [4], the “increase in the expression amount of mIL-6 protein due to activation of IL-6 amplifier” value is on record as “can be suppressed”.
As to “EGF protein: mouse EGF protein (R&D Systems, Inc.), ligand of ErbB1 protein (NSYPGCPSSYDGYCLNGGVCMHIESLDSYTCNCVIGYSGDRCQTRDLRWWELR)”, in assay [5], the “production amount of mIL-6 protein” value is recorded as “significantly (p value <0.01) increased”.
For `COc1cc2ncnc(Nc3ccc(F)c(Cl)c3)c2cc1OCCCN1CCOCC1` [gefitinib, N-(3-chloro-4-fluoro-phenyl)-7-methoxy-6-(3-morpholin-4-ylpropoxy) quinazolin-4-amine], the “symptom of arthritis (clinical score)” value in assay [3] (setting [7]) was “symptom of cytokine-induced arthritis was alleviated, or worsening of symptom of cytokine-induced arthritis was suppressed”. For the same compound, the “symptom of experimental autoimmune encephalomyelitis (clinical score)” value in assay [6] is reported as “symptom of experimental autoimmune encephalomyelitis was alleviated, or worsening of symptom of experimental autoimmune encephalomyelitis was suppressed”.
With `C=CC(=O)Nc1ccc2ncnc(Nc3cccc(Br)c3)c2c1` [PD168393, 4-[(3-Bromophenyl)amino]-6-acrylamidoquinazoline], the “symptom of arthritis (clinical score)” value in assay [3] (mIL-6 + mIL-17A days 0, 1, 2, 10 micrograms into malleolus joints on each of days 0 to 11, scored day 0 to 23) is recorded as “symptom of cytokine-induced arthritis was alleviated, or worsening of symptom of cytokine-induced arthritis was suppressed”. In assay [4], the “increase in the expression amount of mIL-6 protein due to activation of IL-6 amplifier” value was “can be suppressed”.
